# Measurements as given in PubChem BioAssay (NCI).
#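 Briefly, cells in 96-well plates were exposed to five compound concentrations for 48 h, and endpoints were estimated by linear interpolation. Definition used: TGI = concentration required for complete inhibition of growth.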
# Legend:
# Test in all cases: NCI tumour cell line growth inhibition, 48 h
# [1] = system: 786-0 renal
# [2] = system: A498 renal
# [3] = system: A549 NSCLC
# [4] = system: ACHN renal
# [5] = system: BT-549 breast
# [6] = system: CAKI-1 renal
# [7] = system: CCRF-CEM leukemia
# [8] = system: COLO 205 colon
# [9] = system: DU-145 prostate
# [10] = system: EKVX NSCLC
# [11] = system: HCC-2998 colon
# [12] = system: HCT-116 colon
# [13] = system: HCT-15 colon
# [14] = system: HL-60(TB) leukemia
# [15] = system: HOP-62 NSCLC
# [16] = system: HOP-92 NSCLC
# [17] = system: HS 578T breast
# [18] = system: HT29 colon
# [19] = system: IGROV1 ovarian
# [20] = system: K-562 leukemia
# [21] = system: KM12 colon
# [22] = system: LOX IMVI melanoma
# [23] = system: M14 melanoma
# [24] = system: MALME-3M melanoma
# [25] = system: MCF7 breast
# [26] = system: MDA-MB-231 breast
# [27] = system: MDA-MB-435
# [28] = system: MDA-N
# [29] = system: MOLT-4 leukemia
# [30] = system: NCI-H226 lung
# [31] = system: NCI-H23 lung
# [32] = system: NCI-H460 lung
# [33] = system: NCI-H522 lung
# [34] = system: NCI/ADR-RES ovarian
# [35] = system: OVCAR-3 ovarian
# [36] = system: OVCAR-4 ovarian
# [37] = system: OVCAR-5 ovarian
# [38] = system: OVCAR-8 ovarian
# [39] = system: PC-3 prostate
# [40] = system: RPMI-8226 leukemia
# [41] = system: RXF 393 renal
# [42] = system: SF-268 CNS
# [43] = system: SF-295 CNS
# [44] = system: SF-539 CNS
# [45] = system: SK-MEL-2 melanoma
# [46] = system: SK-MEL-28 melanoma
# [47] = system: SK-MEL-5 melanoma
# [48] = system: SK-OV-3 ovarian
# [49] = system: SN12C renal
# [50] = system: SNB-19 CNS
# [51] = system: SNB-75 CNS
# [52] = system: SR leukemia
# [53] = system: SW-620 colon
# [54] = system: T-47D breast
# [55] = system: TK-10 renal
# [56] = system: U251 CNS
# [57] = system: UACC-257 melanoma
# [58] = system: UACC-62 melanoma
# [59] = system: UO-31 renal
# [60] = system: DMS 114 small cell lung
# [61] = system: M19-MEL melanoma
# [62] = system: SNB-78 CNS
smiles,measurement,setting,value
Brc1ccc2c([C@H]3CN[C@@H](c4c[nH]c5cc(Br)ccc45)CN3)c[nH]c2c1,TGI,[1],3.18 µM
same,TGI,[2],3.6 µM
same,TGI,[3],7.39 µM
same,TGI,[4],9.87 µM
same,TGI,[5],24.7 µM
same,TGI,[6],11.3 µM
same,TGI,[7],8.64 µM
same,TGI,[8],2.91 µM
same,TGI,[9],9.98 µM
same,TGI,[10],23.2 µM
same,TGI,[11],3.02 µM
same,TGI,[12],3.03 µM
same,TGI,[13],11.2 µM
same,TGI,[14],4.22 µM
same,TGI,[15],23.8 µM
same,TGI,[16],12.2 µM
same,TGI,[17],25.2 µM
same,TGI,[18],4.01 µM
same,TGI,[19],8.2 µM
same,TGI,[20],4.02 µM
same,TGI,[21],3.28 µM
same,TGI,[22],3.36 µM
same,TGI,[23],5.91 µM
same,TGI,[24],7.73 µM
same,TGI,[25],4 µM
same,TGI,[26],6.65 µM
same,TGI,[27],3.11 µM
same,TGI,[28],3.04 µM
same,TGI,[29],6.48 µM
same,TGI,[30],20.8 µM
same,TGI,[31],8.95 µM
same,TGI,[32],4.15 µM
same,TGI,[33],3.15 µM
same,TGI,[34],17.1 µM
same,TGI,[35],3.94 µM
same,TGI,[36],4.69 µM
same,TGI,[37],10.5 µM
same,TGI,[38],3.38 µM
same,TGI,[39],15.2 µM
same,TGI,[40],7.15 µM
same,TGI,[41],6.6 µM
same,TGI,[42],20.4 µM
same,TGI,[43],19.3 µM
same,TGI,[44],7.46 µM
same,TGI,[45],9.76 µM
same,TGI,[46],27.2 µM
same,TGI,[47],15.6 µM
same,TGI,[48],22.7 µM
same,TGI,[49],12.4 µM
same,TGI,[50],21.8 µM
same,TGI,[51],17.8 µM
same,TGI,[52],6.77 µM
same,TGI,[53],3.28 µM
same,TGI,[54],12.8 µM
same,TGI,[55],18.5 µM
same,TGI,[56],4.19 µM
same,TGI,[57],28.1 µM
same,TGI,[58],23.2 µM
same,TGI,[59],13.8 µM
O=C(/C=C/c1cc(O)c(O)cc1O)OCCc1ccccc1,TGI,[1],18.6 µM
same,TGI,[2],37.4 µM
same,TGI,[3],> 100 µM
same,TGI,[4],26.8 µM
same,TGI,[5],62.1 µM
same,TGI,[6],78.3 µM
same,TGI,[7],7.17 µM
same,TGI,[8],25.7 µM
same,TGI,[9],> 85.1 µM
same,TGI,[10],> 95.6 µM
same,TGI,[11],> 100 µM
same,TGI,[12],> 58.4 µM
same,TGI,[13],54.7 µM
same,TGI,[14],3.73 µM
same,TGI,[15],75.4 µM
same,TGI,[16],20.5 µM
same,TGI,[17],> 93.9 µM
same,TGI,[18],41.6 µM
same,TGI,[19],40.5 µM
same,TGI,[20],6.89 µM
same,TGI,[21],> 100 µM
same,TGI,[22],32 µM
same,TGI,[23],32.7 µM
same,TGI,[24],28.2 µM
same,TGI,[25],20.9 µM
same,TGI,[26],38.3 µM
same,TGI,[27],48.9 µM
same,TGI,[28],20.2 µM
same,TGI,[29],11.7 µM
same,TGI,[30],> 100 µM
same,TGI,[31],53.1 µM
same,TGI,[32],> 100 µM
same,TGI,[33],4.74 µM
same,TGI,[34],71.2 µM
same,TGI,[35],15.7 µM
same,TGI,[36],31.8 µM
same,TGI,[37],> 59.2 µM
same,TGI,[38],22.9 µM
same,TGI,[39],34.2 µM
same,TGI,[40],> 46 µM
same,TGI,[41],> 31.1 µM
same,TGI,[42],38.6 µM
same,TGI,[43],> 82.3 µM
same,TGI,[44],44.5 µM
same,TGI,[45],47.2 µM
same,TGI,[46],39.3 µM
same,TGI,[47],38.4 µM
same,TGI,[48],74.8 µM
same,TGI,[49],22.1 µM
same,TGI,[50],> 100 µM
same,TGI,[51],> 100 µM
same,TGI,[52],30.6 µM
same,TGI,[53],21.2 µM
same,TGI,[54],20.1 µM
same,TGI,[55],17.6 µM
same,TGI,[56],> 57.9 µM
same,TGI,[57],> 64.9 µM
same,TGI,[58],40.5 µM
same,TGI,[59],19.7 µM
CC1(Cl)CCC2(CC(Br)=CC3OC32C)CC1Br (stereo unspecified),TGI,[2],68.8 µM
same,TGI,[3],> 100 µM
same,TGI,[7],53.5 µM
same,TGI,[60],83.2 µM
same,TGI,[10],> 100 µM
same,TGI,[12],40.2 µM
same,TGI,[14],38.7 µM
same,TGI,[15],87.4 µM
same,TGI,[16],78.8 µM
same,TGI,[18],57 µM
same,TGI,[19],> 100 µM
same,TGI,[21],> 100 µM
same,TGI,[23],> 100 µM
same,TGI,[61],81.2 µM
same,TGI,[29],52.4 µM
same,TGI,[30],47.3 µM
same,TGI,[31],49.9 µM
same,TGI,[32],71.1 µM
same,TGI,[33],55.5 µM
same,TGI,[37],> 100 µM
same,TGI,[38],91.7 µM
same,TGI,[41],40.8 µM
same,TGI,[42],50.1 µM
same,TGI,[43],57.6 µM
same,TGI,[46],69.9 µM
same,TGI,[48],> 100 µM
same,TGI,[50],> 100 µM
same,TGI,[62],86.6 µM
same,TGI,[52],55.8 µM
same,TGI,[55],> 100 µM
same,TGI,[56],41.8 µM
same,TGI,[57],42.4 µM
same,TGI,[58],42.7 µM
same,TGI,[59],66.6 µM
C#CC1(O)C(COP(=O)(O)OCC2OC(n3ccc(NCCCCCCCCCCCCCCCCCC)nc3=O)C(O)C2O)OC(n2ccc(N)nc2=O)C1O (stereo unspecified),TGI,[1],> 100 µM
same,TGI,[2],59.2 µM
same,TGI,[3],> 55.9 µM
same,TGI,[4],> 53.3 µM
same,TGI,[5],29.8 µM
same,TGI,[6],6.77 µM
same,TGI,[7],> 100 µM
same,TGI,[8],> 32.9 µM
same,TGI,[9],> 100 µM
same,TGI,[10],54.1 µM
same,TGI,[11],> 34.5 µM
same,TGI,[12],> 36 µM
same,TGI,[13],36.6 µM
same,TGI,[14],19.5 µM
same,TGI,[15],46.7 µM
same,TGI,[16],59.8 µM
same,TGI,[17],45.2 µM
same,TGI,[18],> 95 µM
same,TGI,[19],6.02 µM
same,TGI,[20],19.9 µM
same,TGI,[21],26.6 µM
same,TGI,[22],11.1 µM
same,TGI,[23],15.2 µM
same,TGI,[24],11 µM
same,TGI,[25],> 59.7 µM
same,TGI,[26],34.4 µM
same,TGI,[27],7.57 µM
same,TGI,[28],70.6 µM
same,TGI,[29],40 µM
same,TGI,[30],> 46.4 µM
same,TGI,[31],55.8 µM
same,TGI,[32],34.4 µM
same,TGI,[33],0.773 µM
same,TGI,[34],37.3 µM
same,TGI,[35],62.1 µM
same,TGI,[36],34.8 µM
same,TGI,[37],60.5 µM
same,TGI,[38],35.3 µM
same,TGI,[39],31.7 µM
same,TGI,[40],> 73.8 µM
same,TGI,[41],61.9 µM
same,TGI,[42],38.1 µM
same,TGI,[43],18.6 µM
same,TGI,[44],34.5 µM
same,TGI,[45],5.3 µM
same,TGI,[46],31.6 µM
same,TGI,[47],26 µM
same,TGI,[48],> 59.4 µM
same,TGI,[49],39.9 µM
same,TGI,[50],40.6 µM
same,TGI,[51],45.9 µM
same,TGI,[52],11.7 µM
same,TGI,[53],> 50 µM
same,TGI,[54],> 38.4 µM
same,TGI,[55],19.1 µM
same,TGI,[56],53.5 µM
same,TGI,[57],60.2 µM
same,TGI,[58],10.3 µM
same,TGI,[59],2.53 µM
